Legend:
[1] = target: T1, ATP-sensitive inward rectifier potassium channel 1 (Rattus norvegicus, UniProt P35560); test: Inhibition of rat ROMK1 expressed in HEK293 cells by Tl+ flux assay; format: cell-based
T1 sequence (P35560 whole entry): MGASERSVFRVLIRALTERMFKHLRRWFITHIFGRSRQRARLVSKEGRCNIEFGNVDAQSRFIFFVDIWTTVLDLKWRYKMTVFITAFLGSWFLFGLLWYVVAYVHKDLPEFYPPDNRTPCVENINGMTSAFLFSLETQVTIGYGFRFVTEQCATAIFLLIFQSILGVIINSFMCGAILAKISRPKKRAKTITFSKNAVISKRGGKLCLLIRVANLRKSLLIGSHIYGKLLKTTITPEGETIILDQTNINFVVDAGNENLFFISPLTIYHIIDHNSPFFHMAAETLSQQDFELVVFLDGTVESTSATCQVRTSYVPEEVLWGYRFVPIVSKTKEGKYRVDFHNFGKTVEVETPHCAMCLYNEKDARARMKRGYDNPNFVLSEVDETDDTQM

[2] = target: T2, ATP-sensitive inward rectifier potassium channel 1 (Homo sapiens, UniProt P48048); test: Inhibition of human ROMK1 expressed in CHO cells by Tl+ flux assay; format: cell-based
T2 sequence (P48048 whole entry): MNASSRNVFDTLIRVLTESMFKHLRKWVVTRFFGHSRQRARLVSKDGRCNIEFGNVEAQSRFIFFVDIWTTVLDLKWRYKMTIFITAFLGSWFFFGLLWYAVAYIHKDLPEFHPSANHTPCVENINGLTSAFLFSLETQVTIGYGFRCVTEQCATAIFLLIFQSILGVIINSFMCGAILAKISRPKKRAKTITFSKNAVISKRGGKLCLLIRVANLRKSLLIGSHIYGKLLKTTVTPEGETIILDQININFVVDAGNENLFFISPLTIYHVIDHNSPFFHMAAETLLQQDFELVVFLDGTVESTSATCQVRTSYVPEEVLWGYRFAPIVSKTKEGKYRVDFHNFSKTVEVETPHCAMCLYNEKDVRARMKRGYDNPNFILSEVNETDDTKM

[3] = target: Voltage-gated inwardly rectifying potassium channel KCNH2 (Homo sapiens, UniProt Q12809); test: Inhibition of human ERG
Sequence of Voltage-gated inwardly rectifying potassium channel KCNH2 (Q12809 whole entry): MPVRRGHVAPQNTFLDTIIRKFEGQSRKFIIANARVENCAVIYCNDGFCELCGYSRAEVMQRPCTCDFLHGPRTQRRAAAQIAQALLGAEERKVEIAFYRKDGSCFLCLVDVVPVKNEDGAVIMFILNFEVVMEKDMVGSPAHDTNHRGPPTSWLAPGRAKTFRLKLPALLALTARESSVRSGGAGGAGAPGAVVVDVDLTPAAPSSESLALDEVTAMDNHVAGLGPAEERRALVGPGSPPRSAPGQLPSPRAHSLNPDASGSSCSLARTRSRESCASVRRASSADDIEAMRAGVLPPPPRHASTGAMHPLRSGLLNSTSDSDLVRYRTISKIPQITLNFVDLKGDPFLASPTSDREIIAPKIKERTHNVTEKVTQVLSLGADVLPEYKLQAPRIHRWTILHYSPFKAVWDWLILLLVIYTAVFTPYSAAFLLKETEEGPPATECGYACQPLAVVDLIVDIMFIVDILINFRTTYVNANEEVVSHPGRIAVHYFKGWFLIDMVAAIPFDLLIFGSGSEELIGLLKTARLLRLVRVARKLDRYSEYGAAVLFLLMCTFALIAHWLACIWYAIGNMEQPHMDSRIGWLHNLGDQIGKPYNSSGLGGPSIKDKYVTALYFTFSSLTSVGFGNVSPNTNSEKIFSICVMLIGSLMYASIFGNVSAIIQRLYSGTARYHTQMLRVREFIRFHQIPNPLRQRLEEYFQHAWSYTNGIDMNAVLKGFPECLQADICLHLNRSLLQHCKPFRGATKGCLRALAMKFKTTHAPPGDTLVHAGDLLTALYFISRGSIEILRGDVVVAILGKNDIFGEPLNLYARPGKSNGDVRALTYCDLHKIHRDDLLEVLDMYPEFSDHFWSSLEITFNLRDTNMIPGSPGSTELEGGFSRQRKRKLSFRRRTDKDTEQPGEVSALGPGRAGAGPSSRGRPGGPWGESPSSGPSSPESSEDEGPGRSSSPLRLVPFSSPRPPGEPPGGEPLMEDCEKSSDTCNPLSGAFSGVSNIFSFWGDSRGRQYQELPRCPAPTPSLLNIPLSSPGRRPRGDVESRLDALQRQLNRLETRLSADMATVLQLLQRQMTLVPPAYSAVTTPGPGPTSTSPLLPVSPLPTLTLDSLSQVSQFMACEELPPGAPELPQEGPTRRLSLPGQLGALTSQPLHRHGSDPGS

[4] = target: T2, ATP-sensitive inward rectifier potassium channel 1; test: Inhibition of human ROMK1 expressed in HEK293 cells by Tl+ flux assay; format: cell-based
[5] = target: T3, Inward rectifier potassium channel 13 (Homo sapiens) (UniProt O60928); test: Inhibition human Kir7.1 expressed in HEK293 cells at 10 uM by whole cell patch clamp assay relative to control; format: cell-based
T3 sequence (whole entry): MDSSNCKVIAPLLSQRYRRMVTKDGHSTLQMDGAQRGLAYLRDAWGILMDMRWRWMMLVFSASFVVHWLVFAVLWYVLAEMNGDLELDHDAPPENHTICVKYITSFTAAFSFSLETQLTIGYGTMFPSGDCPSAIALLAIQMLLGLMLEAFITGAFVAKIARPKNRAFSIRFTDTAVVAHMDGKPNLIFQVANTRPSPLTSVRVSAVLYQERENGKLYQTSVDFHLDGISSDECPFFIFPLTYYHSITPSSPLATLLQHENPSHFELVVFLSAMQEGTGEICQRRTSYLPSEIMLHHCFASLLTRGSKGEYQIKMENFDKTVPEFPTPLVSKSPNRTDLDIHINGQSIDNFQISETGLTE

[6] = Protein binding in human plasma; format: ADME, cell-free; settings: read-out: PPB (converted)
[7] = target: Sodium-dependent noradrenaline transporter (Homo sapiens) (UniProt P23975); test: Inhibition of norepinephrine transporter (unknown origin) at 10 uM by radioligand displacement assay relative to control
Sequence of Sodium-dependent noradrenaline transporter (Homo sapiens) (P23975 whole entry): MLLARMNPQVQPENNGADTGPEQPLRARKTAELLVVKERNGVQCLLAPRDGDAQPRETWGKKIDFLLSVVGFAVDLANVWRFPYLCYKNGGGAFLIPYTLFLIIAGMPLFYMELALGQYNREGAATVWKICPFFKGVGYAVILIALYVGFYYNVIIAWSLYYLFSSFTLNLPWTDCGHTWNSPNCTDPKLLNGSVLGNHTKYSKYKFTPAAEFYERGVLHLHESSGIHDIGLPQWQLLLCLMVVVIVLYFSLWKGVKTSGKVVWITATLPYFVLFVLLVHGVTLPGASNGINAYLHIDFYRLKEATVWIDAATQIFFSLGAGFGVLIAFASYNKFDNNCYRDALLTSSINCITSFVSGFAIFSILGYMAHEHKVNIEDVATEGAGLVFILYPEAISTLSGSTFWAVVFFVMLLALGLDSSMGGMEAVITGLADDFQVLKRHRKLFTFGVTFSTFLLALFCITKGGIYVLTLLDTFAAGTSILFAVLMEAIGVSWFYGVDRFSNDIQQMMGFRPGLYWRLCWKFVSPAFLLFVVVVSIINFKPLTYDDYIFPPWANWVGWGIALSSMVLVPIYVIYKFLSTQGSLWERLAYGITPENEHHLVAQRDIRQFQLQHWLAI

[8] = Inhibition of GABA receptor (unknown origin) by radioligand displacement assay; design: species or system Homo sapiens
[9] = Protein binding in rat plasma; format: ADME, cell-free; settings: read-out: PPB (converted)
HEK293 [10] = test: Inhibition of hamster SUR1/mouse Kir6.2 expressed in HEK293 cells at 50 uM by patch clamp electrophysiology assay relative to control; format: cell-based
[11] = target: T4, D(4) dopamine receptor (Homo sapiens) (UniProt P21917); test: Inhibition of DRD4 (unknown origin) at 10 uM by radioligand displacement assay relative to control
T4 sequence (whole entry): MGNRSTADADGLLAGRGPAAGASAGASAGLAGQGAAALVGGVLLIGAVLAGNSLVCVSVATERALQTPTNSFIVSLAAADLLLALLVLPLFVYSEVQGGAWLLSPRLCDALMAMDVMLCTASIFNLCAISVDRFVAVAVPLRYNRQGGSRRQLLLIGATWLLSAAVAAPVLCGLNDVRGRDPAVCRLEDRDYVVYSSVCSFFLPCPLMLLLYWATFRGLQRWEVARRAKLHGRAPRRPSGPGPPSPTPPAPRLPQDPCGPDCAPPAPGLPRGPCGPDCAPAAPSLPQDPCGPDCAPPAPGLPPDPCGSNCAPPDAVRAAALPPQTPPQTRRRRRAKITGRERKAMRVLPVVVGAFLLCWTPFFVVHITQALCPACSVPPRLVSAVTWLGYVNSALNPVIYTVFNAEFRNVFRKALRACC

HEK293 [12] = test: Inhibition of hamster SUR1/mouse Kir6.2 expressed in HEK293 cells at 10 uM by patch clamp electrophysiology assay relative to control; format: cell-based
[13] = Stability in rat liver microsomes assessed as parent compound remaining level; format: ADME, Microsome
[14] = Stability in human liver microsomes assessed as parent compound remaining level; format: ADME, Microsome
[15] = target: Sodium-dependent dopamine transporter (Homo sapiens) (UniProt Q01959); test: Inhibition of dopamine transporter (unknown origin) at 10 uM by radioligand displacement assay relative to control
Sequence of Sodium-dependent dopamine transporter (Homo sapiens) (Q01959 whole entry): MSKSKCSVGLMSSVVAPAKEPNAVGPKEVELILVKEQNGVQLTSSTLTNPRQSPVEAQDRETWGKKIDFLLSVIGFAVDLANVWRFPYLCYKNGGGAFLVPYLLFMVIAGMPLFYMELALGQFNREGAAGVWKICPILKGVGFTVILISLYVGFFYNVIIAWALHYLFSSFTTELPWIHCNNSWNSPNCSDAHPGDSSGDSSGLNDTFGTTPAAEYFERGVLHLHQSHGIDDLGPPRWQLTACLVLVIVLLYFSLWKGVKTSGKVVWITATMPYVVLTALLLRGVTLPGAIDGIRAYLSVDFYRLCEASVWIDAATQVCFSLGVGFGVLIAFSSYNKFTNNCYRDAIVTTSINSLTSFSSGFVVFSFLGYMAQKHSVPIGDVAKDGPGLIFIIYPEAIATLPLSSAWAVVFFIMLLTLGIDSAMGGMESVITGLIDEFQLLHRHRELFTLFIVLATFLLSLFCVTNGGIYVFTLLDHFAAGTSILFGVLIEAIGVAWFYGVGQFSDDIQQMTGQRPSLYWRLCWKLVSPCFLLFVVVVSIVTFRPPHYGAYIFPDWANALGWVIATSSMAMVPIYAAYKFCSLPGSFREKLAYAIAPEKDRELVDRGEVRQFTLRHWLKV

Homo sapiens = species: Homo sapiens; test: Inhibition of GABA receptor (unknown origin) at 10 uM by radioligand displacement assay relative to control

## C[C@H]1CC2(CCN(C[C@@H](O)c3ccc4c(ccc5nnnn54)c3)CC2)C(=O)N1C1=CC(=O)OC1
[1]
  IC50: 10 nM

## Cc1c(C(O)CN2CCc3nc(-n4ncc5c(C#N)cccc54)ncc3C2)ccc2c1COC2=O (stereo not given)
[2]
  IC50: 38 nM

## Cc1c([C@@H]2CN(Cc3ccc(-n4cc(C#N)cn4)cn3)CCN2)ccc2c1COC2=O
[2]
  IC50: 8.8 nM

## CC1=C(N2CCC3(CCN(CCc4ccc5c(c4)Cn4nnnc4-5)CC3)C2=O)COC1=O
[1]
  IC50: 6 nM

## Cc1cc(-c2ncc(CNC[C@H](O)c3ccc4c(c3C)COC4=O)s2)ccc1C#N
[2]
  IC50: 6.6 nM

## CCOc1cc(-n2cc(CNC[C@H](O)c3ccc4c(c3C)COC4=O)cn2)ccc1C#N
[2]
  IC50: 6.2 nM

## Cc1c(C#N)cccc1[C@@H]1CN2CCN(C(=O)Cc3ccc(-n4cnnn4)cc3)C[C@H]2CO1
[3]
  IC50: 14800 nM
[4]
  IC50: 60 nM

## O=C1OCc2cc(C3CN4CCN(C(=O)Cc5ccc(-n6cnnn6)cc5)CC4CO3)ccc21 (stereo not given)
[3]
  IC50: 21100 to 59400 nM
[4]
  IC50: 65 to 105 nM

## CC1=C(N2CCC3(CCN(C[C@@H](O)c4ccc5c(c4Cl)Cn4nnnc4-5)CC3)C2=O)COC1=O
[1]
  IC50: 9 nM

## O=[N+]([O-])c1ccc(CN2CCOCCOCCN(Cc3ccc([N+](=O)[O-])cc3)CCOCC2)cc1
[5]
  inhibition: 69%
[1]
  IC50: 294 nM

## O=C1OCCc2cc([C@@H]3CN4CCN(C(=O)Cc5ccc(-n6cnnn6)cc5)C[C@H]4CO3)ccc21
[3]
  IC50: 75900 nM
[4]
  IC50: 57 nM

## CC1=C(N2CCC3(CCN(CC(CO)c4ccc5c(ccc6nnnn65)c4)CC3)C2=O)COC1=O (stereo not given)
[1]
  IC50: 18 nM

## O=[N+]([O-])c1ccc2nc(COCc3nc4ccc([N+](=O)[O-])cc4[nH]3)[nH]c2c1
[6]
  fraction unbound: 0.0086
[7]
  inhibition: > 50%
[1]
  IC50: 240 nM
[8]
  IC50: 6200 nM
[9]
  fraction unbound: 0.0161
HEK293 [10]
  inhibition: 28%
[11]
  inhibition: > 50%
HEK293 [12]
  inhibition: 17%
[13]
  Stability: 60%
[14]
  Stability: 80%
[15]
  inhibition: > 50%
Homo sapiens
  inhibition: > 50%

## CC1=C(N2CCC3(CCN(C[C@H](O)c4ccc5c(c4)Cn4nnnc4-5)C[C@H]3F)C2=O)COC1=O (stereo not given in full)
[1]
  IC50: 43 nM

## O=[N+]([O-])c1ccc2[nH]c(CCCc3nc4cc([N+](=O)[O-])ccc4[nH]3)nc2c1
[1]
  IC50: 8000 nM

From ChEMBL document CHEMBL4321786, “Discovery of Small Molecule Renal Outer Medullary Potassium (ROMK) Channel Inhibitors: A Brief History of Medicinal Chemistry Approaches To Develop Novel Diuretic Therapeutics” (J Med Chem, 2019)
